In the NIST ThermoML archive (doi:10.1021/acs.jced.9b00152):

Assays:
[1] = Liquid, Ebulliometric method (Recirculating still)
[2] = Boiling temperature at pressure P; conditions: Liquid, Ebulliometric method (Recirculating still)

CCCOC(C)=O [propyl ethanoate]
Conditions | Boiling temperature at pressure P [°C] | vapor or sublimation pressure [kPa]
[1], 329.58 K | – | 20
[1], 347.21 K | – | 40
[1], 358.6 K | – | 60
[1], 367.13 K | – | 80
[1], 374.66 K | – | 101.3
[2], 14.9 kPa | 49.47 | –
[2], 16.6 kPa | 51.86 | –
[2], 18.56 kPa | 54.62 | –
[2], 20 kPa | 56.43 | –
[2], 24.75 kPa | 61.56 | –
[2], 27.99 kPa | 64.63 | –
[2], 33.06 kPa | 68.81 | –
[2], 37.76 kPa | 72.40 | –
[2], 40.07 kPa | 74.06 | –
[2], 44.38 kPa | 76.90 | –
[2], 48.69 kPa | 79.58 | –
[2], 54.33 kPa | 82.51 | –
[2], 60.03 kPa | 85.5 | –
[2], 66.87 kPa | 88.7 | –
[2], 73.94 kPa | 91.7 | –
[2], 79.95 kPa | 93.98 | –
[2], 85.25 kPa | 95.92 | –
[2], 91.51 kPa | 98.26 | –
[2], 101.26 kPa | 101.51 | –

CC(=O)O [acetic acid]
Conditions | Boiling temperature at pressure P [°C] | vapor or sublimation pressure [kPa]
[1], 345.03 K | – | 20
[1], 363.04 K | – | 40
[1], 374.54 K | – | 60
[1], 383.32 K | – | 80
[1], 390.93 K | – | 101.3
[2], 17 kPa | 68.2 | –
[2], 18.47 kPa | 69.72 | –
[2], 20.01 kPa | 71.88 | –
[2], 21.29 kPa | 73.26 | –
[2], 23.18 kPa | 75.34 | –
[2], 24.92 kPa | 77.20 | –
[2], 27.44 kPa | 79.73 | –
[2], 29.78 kPa | 81.86 | –
[2], 32.78 kPa | 84.39 | –
[2], 34.97 kPa | 86.11 | –
[2], 39.99 kPa | 89.89 | –
[2], 48.99 kPa | 95.41 | –
[2], 55.76 kPa | 99.12 | –
[2], 60.04 kPa | 101.39 | –
[2], 64.44 kPa | 103.51 | –
[2], 69.39 kPa | 105.90 | –
[2], 75.23 kPa | 108.5 | –
[2], 79.98 kPa | 110.17 | –
[2], 83.66 kPa | 111.67 | –
[2], 87.18 kPa | 112.92 | –
[2], 97.08 kPa | 116.43 | –
[2], 101.3 kPa | 117.78 | –

CC(=O)OC(C)C [1-methylethyl ethanoate]
[1]
Conditions | vapor or sublimation pressure [kPa]
317.77 K | 20
334.75 K | 40
345.94 K | 60
354.29 K | 80
361.79 K | 101.3
